Source: patent US9714247B2, “Multiple kinase pathway inhibitors” (Mannkind Corporation, priority 2012, dated 2017)
Read-outs that look alike come from different tables or passages of the source.

Columns and labels:
Ramos = test: CellTiter-Glo proliferation/viability assay; format: cell-based, human; conditions: Homo sapiens, Ramos, read-out: Ramos EC50
Src = Src (Homo sapiens (Human), UniProt P12931); test: biochemical
BTK = BTK (Homo sapiens (Human), UniProt Q06187)
Lyn [1] = target: T1, Lyn (Homo sapiens (Human), UniProt P07948); test: biochemical
T1 sequence (P07948 whole entry): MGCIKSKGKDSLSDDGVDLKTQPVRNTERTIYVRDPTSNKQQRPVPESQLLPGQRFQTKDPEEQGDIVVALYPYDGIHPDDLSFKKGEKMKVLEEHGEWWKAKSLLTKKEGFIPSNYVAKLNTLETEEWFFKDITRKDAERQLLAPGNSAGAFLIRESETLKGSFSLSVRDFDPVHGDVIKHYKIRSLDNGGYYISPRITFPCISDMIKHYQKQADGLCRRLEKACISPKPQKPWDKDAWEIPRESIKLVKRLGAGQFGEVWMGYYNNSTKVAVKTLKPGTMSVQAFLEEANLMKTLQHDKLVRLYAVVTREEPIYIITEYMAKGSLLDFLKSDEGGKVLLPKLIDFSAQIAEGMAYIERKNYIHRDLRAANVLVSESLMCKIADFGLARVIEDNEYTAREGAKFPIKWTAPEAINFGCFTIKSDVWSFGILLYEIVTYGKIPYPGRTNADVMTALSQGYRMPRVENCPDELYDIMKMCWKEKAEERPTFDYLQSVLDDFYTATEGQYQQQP

DoHH2 = test: CellTiter-Glo proliferation/viability assay; format: cell-based, human; conditions: Homo sapiens, DOHH-2; 48 hrs; read-out: DoHH2 EC50
Lyn [2] = target: T1, Lyn; conditions: read-out: Lyn IC50

BTK, sequence (Q06187 whole entry): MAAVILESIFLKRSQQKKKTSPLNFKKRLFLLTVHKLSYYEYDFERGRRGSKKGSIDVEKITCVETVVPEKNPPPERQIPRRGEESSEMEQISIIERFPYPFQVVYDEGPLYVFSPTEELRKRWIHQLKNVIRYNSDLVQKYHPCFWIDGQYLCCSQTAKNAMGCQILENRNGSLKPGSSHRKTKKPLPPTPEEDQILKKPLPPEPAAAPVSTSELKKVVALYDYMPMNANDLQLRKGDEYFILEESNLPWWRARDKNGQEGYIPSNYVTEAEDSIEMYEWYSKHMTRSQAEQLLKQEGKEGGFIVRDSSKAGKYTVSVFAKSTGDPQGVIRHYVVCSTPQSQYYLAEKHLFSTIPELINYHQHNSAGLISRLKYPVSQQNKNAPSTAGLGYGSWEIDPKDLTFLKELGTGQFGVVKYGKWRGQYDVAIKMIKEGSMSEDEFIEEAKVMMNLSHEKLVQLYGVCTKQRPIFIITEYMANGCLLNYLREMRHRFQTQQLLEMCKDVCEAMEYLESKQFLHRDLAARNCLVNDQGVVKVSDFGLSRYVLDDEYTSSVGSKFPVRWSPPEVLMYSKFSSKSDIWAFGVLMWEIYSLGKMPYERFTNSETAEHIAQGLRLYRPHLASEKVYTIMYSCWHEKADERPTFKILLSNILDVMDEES
Src, sequence (P12931 whole entry, looked up): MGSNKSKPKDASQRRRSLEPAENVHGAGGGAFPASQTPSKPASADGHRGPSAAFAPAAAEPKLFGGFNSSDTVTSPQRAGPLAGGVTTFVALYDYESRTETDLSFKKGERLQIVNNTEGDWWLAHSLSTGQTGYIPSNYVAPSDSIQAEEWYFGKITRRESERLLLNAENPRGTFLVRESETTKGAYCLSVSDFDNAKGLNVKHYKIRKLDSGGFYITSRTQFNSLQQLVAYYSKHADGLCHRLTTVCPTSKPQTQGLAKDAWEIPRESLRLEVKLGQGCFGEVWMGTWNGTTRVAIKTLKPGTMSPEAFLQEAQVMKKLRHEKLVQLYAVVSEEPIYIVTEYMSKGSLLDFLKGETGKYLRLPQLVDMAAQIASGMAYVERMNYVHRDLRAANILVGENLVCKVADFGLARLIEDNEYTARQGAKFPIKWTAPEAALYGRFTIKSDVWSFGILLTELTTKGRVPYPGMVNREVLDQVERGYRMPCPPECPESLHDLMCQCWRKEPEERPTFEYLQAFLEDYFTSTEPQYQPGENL

| EC50 (Ramos; 48 hrs) [µM] | IC50 (Src) [µM] | IC50 (BTK) [µM] | IC50 (Lyn [1]) [µM] | EC50 (Ramos; 48 h) [µM] | IC50 (Lyn [2]) [µM] | IC50 (BTK; read-out: BTK IC50) [µM] | IC50 (Lyn [1]; Lyn IC50) [µM] | SMILES | EC50 (DoHH2) [µM] |
| --- | --- | --- | --- | --- | --- | --- | --- | --- | --- |
| > 10 | 1 to 5 | 1 to 5 | 0.1 to 1 |  |  |  |  | CCn1c(=O)c(-c2ccccc2)cc2cnc(Nc3ccc(OCCN(C)C)cn3)cc21 [Compound 48, 7-[5-(2-Dimethylamino-ethoxy)-pyridin-2-ylamino]-1-ethyl-3-phenyl-1H-[1,6]naphthyridin-2-one] | 1 to 10 |
|  | 0.1 to 1 | 0.1 to 1 | 0.1 to 1 | > 10 |  |  |  | O=c1c(-c2c(F)cccc2F)cc2cnc(Nc3ccc(F)cn3)cc2n1CCO [Compound 125, 3-(2,6-difluorophenyl)-7-((5-fluoropyridin-2-yl)amino)-1-(2-hydroxyethyl)-1,6-naphthyridin-2(1H)-one] | < 1 |
|  | 0.1 to 1 | 1 to 5 | 0.1 to 1 | > 10 |  |  |  | CCN(CC)CCOc1ccc(Nc2cc3[nH]c(=O)c(C(C)C)cc3cn2)nc1 [Compound 49, 7-(5-(2-(diethylamino)ethoxy)pyridin-2-ylamino)-3-isopropyl-1,6-naphthyridin-2(1H)-one] | 1 to 10 |
| > 10 | 0.1 to 1 |  | 0.1 to 1 |  |  |  |  | O=c1c(-c2c(F)cccc2F)cc2cnc(Nc3ccc(F)cn3)cc2n1[C@@H]1CCNC1 [Compound 151, (R)-3-(2,6-difluorophenyl)-7-((5-fluoropyridin-2-yl)amino)-1-(pyrrolidin-3-yl)-1,6-naphthyridin-2(1H)-one] | 1 to 10 |
| > 10 | 0.1 to 1 |  | 0.1 to 1 |  |  |  |  | CCN(CC)CCOc1ccc(Nc2cc3c(cn2)cc(C(C)C)c(=O)n3CC)nc1 [Compound 50, 7-[5-(2-Diethylamino-ethoxy)-pyridin-2-ylamino]-1-ethyl-3-isopropyl-1H-[1,6]naphthyridin-2-one] | 1 to 10 |
|  | 1 to 5 | 0.1 to 1 |  | > 10 | > 5 |  |  | COCCn1c(=O)c(-c2c(F)cccc2F)cc2cnc(Nc3ccc(F)cn3)cc21 [Compound 126, 3-(2,6-difluorophenyl)-7-((5-fluoropyridin-2-yl)amino)-1-(2-methoxyethyl)-1,6-naphthyridin-2(1H)-one] | 1 to 10 |
|  | 1 to 5 |  |  | > 10 | > 5 | > 5 |  | CCn1c(=O)c(C#CCOC)cc2cnc(Nc3ccc(C)cn3)cc21 [Compound 32] | > 10 |
|  | < 0.1 |  |  | 1 to 10 |  |  | 0.1 to 1 | O=c1c(-c2c(F)cccc2F)cc2cnc(Nc3ccc(F)cn3)cc2n1C1CCOC1 (single isomer, unassigned) [Compound 141, (S or R)-3-(2,6-difluorophenyl)-7-((5-fluoropyridin-2-yl)amino)-1-(tetrahydrofuran-3-yl)-1,6-naphthyridin-2(1H)-one] | < 1 |
|  | 1 to 5 |  |  | > 10 |  |  | 1 to 5 | CN1CCC(n2c(=O)c(-c3c(F)cccc3F)cc3cnc(Nc4ccc(F)cn4)cc32)C1 (centres unmarked) [Compound 85, 3-(2,6-difluorophenyl)-7-((5-fluoropyridin-2-yl)amino)-1-(1-methylpyrrolidin-3-yl)-1,6-naphthyridin-2(1H)-one] | 1 to 10 |
| 1 to 10 | 0.1 to 1 |  |  |  | > 5 | > 5 |  | CC#Cc1cc2cnc(Nc3ccc(C)cn3)cc2n(CC)c1=O [Compound 21] | 1 to 10 |
|  | 0.1 to 1 |  |  | 1 to 10 | > 5 | > 5 |  | CCn1c(=O)c(C#CC(C)(C)C)cc2cnc(Nc3ccc(C)cn3)cc21 [Compound 39] | 1 to 10 |
|  | 0.1 to 1 |  |  | > 10 | > 5 | > 5 |  | CCn1c(=O)c(-c2ccc(C)cc2)cc2cnc(Nc3ccc(C)cn3)cc21 [Compound 40, 1-ethyl-7-(5-methylpyridin-2-ylamino)-3-p-tolyl-1,6-naphthyridin-2(1H)-one] | > 10 |
